The test system of data set [1] is Human Neural Stem Cells. The experiment in a line: MKC-231 in combination with an AMPA agonist, neuronal differentiation of human neural stem cells. Type of data set: cell-based. Conditions: for EC50: Homo sapiens, Neural stem cell. The protocol:
FIG. 4 is a dose-response curve showing enhancement of the effects of the agent MKC-231 on neuronal differentiation by combination with an AMPA agonist (AMPA). Data is presented as the percentage of the neuronal positive control, with basal media values subtracted.
FIG. 6 is the average does response curve of multiple experiments (N=6) showing enhancement of the effects of the agent MKC-231 on neuronal differentiation by combination with affixed concentration of AMPA agonist (0.32 μM AMPA). […] Data is presented as the percentage of the neuronal positive control, with basal media values subtracted.
Experiments with various concentrations of MKC-231 alone or with 0.316 μM of an AMPA agonist (AMPA) were carried out generally as described in Example 1 for neuronal differentiation. […] The data also indicate that MKC-231 apparently exerts some of its neurogenic effect as an AMPA potentiator or sensitizer. Also see FIG. 6 relating to BCI-540 in combination with AMPA and neuronal differentiation.

The test system of data set [2] is male F344 rats. The experiment in a line: Hippocampal neurogenesis in rat (BrdU). In kind it is in vivo. The protocol:
BCI-540 was administered to male F344 rats by oral gavage once daily for 28 days (1.0 and 4.0 mg/kg/day, p.o.). BrdU was administered once daily for 5 days (days 9 to 14, 100 mg/kg/day, i.p.). Animals were sacrificed on day 28. Brains were removed and processed for evaluation of neurogenesis.
The y-axis represents percent change compared to vehicle control. The x-axis indicates treatment with vehicle set to 100% (black bar) and BCI-540 dosed at 1.0 and 4.0 mg/kg/day (black hatched bars). The black line indicates 100% of vehicle control.

For data set [3], the target named is acetylcholinesterase (AChE) (Homo sapiens, UniProt P22303). Conditions: cited from earlier work.
Data set [4] deals with Human neural stem cells (hNSCs). The experiment in a line: Neuronal differentiation of human neural stem cells (TUJ-1 staining). In kind it is cell-based. An excerpt:
Human neural stem cells (hNSCs) were isolated and grown in monolayer culture, plated, treated with varying concentrations of MKC-231 (test compound), and stained with TUJ-1 antibody, as described in U.S. Provisional Application No. 60/697,905 (incorporated by reference). Mitogen-free test media with a positive control for neuronal differentiation was used along with basal media without growth factors as a negative control.
The dose response curve of the neuronal positive control is included as a reference. The data is presented as a percent of neuronal positive control.

In data set [5] the test system is Human Neural Stem Cells. The experiment in a line: MKC-231 in combination with an AMPA antagonist (NBQX), neuronal differentiation of human neural stem cells. In kind it is cell-based. The method, then: FIG. 7 is a dose-response curve showing inhibition of the effects of the agent MKC-231 on neuronal differentiation by combination with an AMPA antagonist (NBQX). Data is presented as the percentage of the neuronal positive control, with basal media values subtracted.
Experiments with various concentrations of MKC-231 alone or with 1.0 μM of an AMPA antagonist (NBQX) were carried out generally as described in Example 1 for neuronal differentiation. […] The data also indicate that MKC-231 exerts some of its neurogenic effect as through the AMPA receptor activation.

In data set [6] the test system is male F344 rats. The experiment in a line: Novelty suppressed feeding in rat. Conditions: for change in latency to eat the food pellet: 21-day administration. In kind it is in vivo. The method, then: BCI-540 was administered to male F344 rats by oral gavage once daily for 21 days (1.0 mg/kg/day, p.o.). Fluoxetine was administered by oral gavage once daily for 21 days (10 mg/kg/day, p.o.). BrdU was administered once daily for 5 days (days 9 to 14, 100 mg/kg/day, i.p.). Animals were tested after 21 days of drug administration.
Shown in FIG. 9 is the change in latency to eat compared to vehicle control (±SEM). The y-axis represents percent change compared to vehicle control. The x-axis indicates treatment. Vehicle is set to 100%. The black line indicates 100% of vehicle control.

Data set [7] concerns male Sprague Dawley rats. The experiment in a line: Elevated plus maze (animal model of anxiety). In kind it is in vivo, rat. The method, then:
BCI-540 was administered to male Sprague Dawley rats by oral gavage once daily for 21 days (1.0 mg/kg/day, p.o.). As a positive control, the anxiolytic diazepam (1.5 mg/kg, i.p.) was administered one time, 30 minutes prior to testing.
The y-axis represents percent time on the open arm. The x-axis indicates treatment with vehicle (black bar), positive control diazepam (gray bar), and BCI-540 treated animals (black hatched bars) (n=15/group).

The test system of data set [8] is Human Neural Stem Cells. The experiment in a line: Toxic/trophic effect on human neural stem cells (Hoechst 33342 cell count). In kind it is cell-based. Conditions: concentrations up to 31.6 μM. The protocol: Experiments were carried out as described in Example 1, except that the cells were stained with a nuclear dye (Hoechst 33342).
The data therein is shown as a percentage of the basal media cell count. Concentrations that are toxic fall below 80% of the basal cell count. Trophic compounds show dose dependent increases in cell count.

For data set [9], the system named is hNSCs. Kind of data set: Astrocyte differentiation of hNSCs (GFAP staining). Type of data set: cell-based, human. The protocol:
Experiments were carried out as described in Example 1, except the positive control for astrocyte differentiation contained mitogen-free test media with positive control for astrocyte differentiation, and cells were stained with GFAP antibody.

The conditions of data set [10]: cited from earlier work; for stability at room temperature and during storage: room temperature (about 25° C.), over time.
The mark [11] stands for this setting: 1.0 mg/kg daily p.o. for 21 days.

acetylcholinesterase (AChE), sequence (P22303 32-614, species assumed): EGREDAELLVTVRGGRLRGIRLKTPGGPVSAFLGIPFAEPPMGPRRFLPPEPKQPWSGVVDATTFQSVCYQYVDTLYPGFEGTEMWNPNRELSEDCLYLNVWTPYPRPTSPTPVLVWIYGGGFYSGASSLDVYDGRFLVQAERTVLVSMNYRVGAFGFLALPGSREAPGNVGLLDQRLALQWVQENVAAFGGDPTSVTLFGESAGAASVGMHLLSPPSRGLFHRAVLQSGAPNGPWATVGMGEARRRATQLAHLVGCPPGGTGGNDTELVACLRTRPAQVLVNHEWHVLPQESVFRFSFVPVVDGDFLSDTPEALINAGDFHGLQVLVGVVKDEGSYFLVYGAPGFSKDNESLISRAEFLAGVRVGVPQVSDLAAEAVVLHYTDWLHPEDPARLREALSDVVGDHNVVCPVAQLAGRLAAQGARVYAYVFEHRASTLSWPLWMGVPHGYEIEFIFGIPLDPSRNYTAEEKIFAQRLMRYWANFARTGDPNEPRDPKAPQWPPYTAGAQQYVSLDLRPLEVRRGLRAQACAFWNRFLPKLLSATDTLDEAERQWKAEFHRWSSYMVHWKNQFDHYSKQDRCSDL

Turning to `Cc1o[nH]c(=O)c1CC(N)C(=O)O` (stereo not drawn) [AMPA, reference compound], in data set [1] (0.316 μM AMPA), the “effect of AMPA agonist on MKC-231 stimulated neuronal differentiation” value is listed as “enhances the stimulation of neuronal differentiation”. The “neuronal differentiation by AMPA alone” value in data set [1] (0.32 μM AMPA alone (FIG. 6)) is “does not promote neuronal differentiation alone”.

Regarding `Cc1oc2nc3c(c(NC(=O)CN4CCCC4=O)c2c1C)CCCC3` [MKC-231, 2-(2-oxypyrrolidin-1-yl)-N-(2,3-dimethyl-5,6,7,8-tetrahydrofuro(2,3-b)quinolin-4-yl)acetoamide], the entries for the “increase in new neurons within the granule cell layer of the dentate gyrus compared to vehicle control” value in [2] (1.0 mg/kg daily p.o. for 28 days) and in data set [2] (4.0 mg/kg daily p.o. for 28 days) were 22% and 20%, respectively. In data set [2] (1.0 and 4.0 mg/kg daily for 28 days), the “change in new neurons within the granule cell layer of the dentate gyrus” value was “statistically significant increase”. Moreover, the EC50 in data set [1] (read-out: EC50 neuronal differentiation, MKC-231 in the presence of a fixed concentration AMPA) is 0.22 µM; in data set [1] (average of multiple experiments (N=6) (FIG. 6), read-out: EC50 neuronal differentiation, MKC-231 alone), 3.7 µM; in data set [1] (with 0.316 μM AMPA agonist (AMPA) (FIG. 4), read-out: EC50 neuronal differentiation, MKC-231 in combination with AMPA), 0.99 µM; in [4] (Homo sapiens, Neural stem cell, MKC-231 alone, percent of neuronal positive control, basal media subtracted (FIG. 1)) it was 5.1 µM; in [5] (Homo sapiens, Neural stem cell, with 1.0 μM NBQX (FIG. 7)) it was over 31.6 µM. The AChE inhibitory activity result in data set [3] is given as “does not have such inhibitory activity”. Besides, in [4] (FIG. 1), the “neuronal differentiation above background levels” value is “promoted neuronal differentiation above background levels”. In addition, in data set [6] (setting [11]), the “decrease in latency to eat compared to vehicle control” value is listed as 35%. The “change in latency to eat the food pellet” value in data set [6] was “statistically significant decrease”. Further, the “increase in the time spent on the open arms” value in [7] (setting [11]) was 20%. In addition, in data set [7] (chronic administration, 1.0 mg/kg/day p.o., 21 days), the “time spent on the open arms” value was “significant increase”. The “toxicity (cell count below 80% of basal cell count)” value in [8] is given as “no toxicity”. In addition, in data set [9] (FIG. 2), the “astrocyte differentiation above basal media values” was “no significant increase”. Besides, in data set [9] (percent of astrocyte positive control, basal media subtracted (FIG. 2)), the EC50 astrocyte differentiation entry is recorded as “undeterminable”.

On to `NS(=O)(=O)c1cccc2c1c([N+](=O)[O-])cc1nc(O)c(O)nc12` [NBQX, reference compound], for which the “effect of AMPA antagonist on MKC-231 stimulated neuronal differentiation” value in [5] (1.0 μM NBQX) is on record as “inhibits the stimulation of neuronal differentiation”.

As for `CN1C(=O)CN=C(c2ccccc2)c2cc(Cl)ccc21` [diazepam, reference compound], the “increase in time spent on the open arms” value in data set [7] (single administration, 1.5 mg/kg i.p., 30 minutes prior to testing) is reported as 12%.

As to `CNCCC(Oc1ccc(C(F)(F)F)cc1)c1ccccc1` (stereo not drawn) [fluoxetine, reference compound], the “decrease in latency to eat compared to vehicle control” value in [6] (10.0 mg/kg daily p.o. for 21 days) was 38%. The “change in latency to eat the food pellet” value in data set [6] is given as “statistically significant decrease”.

For the compound `Cc1oc2nc3c(c(NC(=O)CC4CNC(=O)C4)c2c1C)CCCC3` (stereo not drawn) [form A crystal, N-(2,3-dimethyl-5,6,7,8-tetrahydrofuro[2,3-b]quinolin-4-yl)-2-(2-oxopyrrolidin-4-yl)acetamide], in data set [10], the “stability at room temperature and during storage” value is reported as “better stability”; the stability in storage entry is “greater stability in storage than the form B crystal”.

On to `Cc1oc2nc3c(c(NC(=O)CC4CNC(=O)C4)c2c1C)CCCC3` (stereo not drawn) [form B crystal, N-(2,3-dimethyl-5,6,7,8-tetrahydrofuro[2,3-b]quinolin-4-yl)-2-(2-oxopyrrolidin-4-yl)acetamide], for which, in data set [10], the “stability at room temperature and during storage” value is listed as “lower stability”; the stability in storage entry is reported as “lower stability in storage than the form A crystal”.

The values above are taken from US20090088449A1, “4-ACYLAMINOPYRIDINE DERIVATIVE MEDIATED NEUROGENESIS” (MITSUBISHI TANABE PHARMA CORPORATION, priority 2006, published 2009).
